Consider 26 compounds from US9522914B2, “Azole derivative” (TAISHO PHARMACEUTICAL CO., LTD, priority 2011, dated 2016).

This test concerns the target Human V1b receptor (Homo sapiens (Human), UniProt P47901). Nature of the test: Binding Test for V1b Receptor ([3H]AVP, crude membrane preparation of 293FT cells). The note with it: inhibition of [3H]AVP binding (0.4 to 1 nmol/L), room temperature, 60 minutes. Summed up:
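Crude membranes from 293FT cells transiently expressing human V1b, incubated with [3H]AVP (0.4 to 1 nmol/L) and compound (0.01 nmol/L–1 μmol/L final) in Tris pH 7.4 with MgCl2 and 0.1% BSA, 60 min at room temperature. Bound label collected by filtration. Nonspecific binding defined with unlabeled AVP; IC50 from dose-response curve.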

Chain of Human V1b receptor (P47901 whole entry): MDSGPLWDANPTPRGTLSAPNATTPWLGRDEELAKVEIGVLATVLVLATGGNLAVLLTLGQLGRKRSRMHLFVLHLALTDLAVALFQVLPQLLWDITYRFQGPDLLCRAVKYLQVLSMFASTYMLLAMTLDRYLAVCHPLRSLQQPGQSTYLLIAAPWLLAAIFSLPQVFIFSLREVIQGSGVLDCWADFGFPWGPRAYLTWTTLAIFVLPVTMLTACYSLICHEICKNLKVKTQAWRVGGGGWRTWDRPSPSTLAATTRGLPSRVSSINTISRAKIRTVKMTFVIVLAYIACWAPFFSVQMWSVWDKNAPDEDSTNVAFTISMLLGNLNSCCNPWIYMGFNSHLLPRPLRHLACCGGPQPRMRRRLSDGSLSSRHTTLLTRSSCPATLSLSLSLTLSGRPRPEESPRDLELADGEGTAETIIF

`CC(C)(C)NC(=O)Cc1nn(-c2ccc(CCN3CCOCC3)cn2)c(=O)n1-c1cccc(Cl)c1` [Example D-15, N-tert-butyl-2-[4-(3-chlorophenyl)-1-{5-[2-(morpholin-4-yl)ethyl]pyridin-2-yl}-5-oxo-4,5-dihydro-1H-1,2,4-triazol-3-yl]acetamide]: the half-maximal inhibitory concentration (IC50) is 10 to 100 nM.

Turning to `CC(C)(C)NC(=O)Cc1nn(-c2ccc(CCN3C4CCC3COC4)cn2)c(=O)n1-c1cccc(Cl)c1` [Example D-16, N-tert-butyl-2-[4-(3-chlorophenyl)-1-{5-[2-(3-oxa-8-azabicyclo[3.2.1]oct-8-yl)ethyl]pyridin-2-yl}-5-oxo-4,5-dihydro-1H-1,2,4-triazol-3-yl]acetamide], the IC50 fell in the range of 10 to 100 nM.

In turn, `CC(C)NC(=O)Cc1nn(-c2ccc(CC(C)N3CCOCC3)cc2)c(=O)n1-c1cccc(Cl)c1` [Example D-17, 2-[4-(3-chlorophenyl)-1-{4-[2-(morpholin-4-yl)propyl]phenyl}-5-oxo-4,5-dihydro-1H-1,2,4-triazol-3-yl]-N-(propan-2-yl)acetamide] returned an IC50 of 3.9 nM. In other words, the single-digit nanomolar range.

`CC(C)NC(=O)Cc1nn(-c2ccc(CC(C)N3CCOCC3)cn2)c(=O)n1-c1cccc(Cl)c1` [Example D-19, 2-[4-(3-chlorophenyl)-1-{5-[2-(morpholin-4-yl)propyl]pyridin-2-yl}-5-oxo-4,5-dihydro-1H-1,2,4-triazol-3-yl]-N-(propan-2-yl)acetamide]: the IC50 lay in the range of 10 to 100 nM.

In the case of `CC(C)NC(=O)Cc1nn(-c2ccc(CCN3CCOCC3)c(F)c2)c(=O)n1-c1cccc(Cl)c1` [Example D-20, 2-[4-(3-chlorophenyl)-1-{3-fluoro-4-[2-(morpholin-4-yl)ethyl]phenyl}-5-oxo-4,5-dihydro-1H-1,2,4-triazol-3-yl]-N-(propan-2-yl)acetamide], the IC50 worked out at 20 nM.

Consider `CC(C)NC(=O)Cc1nn(-c2ccc(CCN3C4CCC3COC4)c(F)c2)c(=O)n1-c1cccc(Cl)c1` [Example D-21, 2-[4-(3-chlorophenyl)-1-{3-fluoro-4-[2-(3-oxa-8-azabicyclo[3.2.1]oct-8-yl)ethyl]phenyl}-5-oxo-4,5-dihydro-1H-1,2,4-triazol-3-yl]-N-(propan-2-yl)acetamide], for which the IC50 was found to be 7.5 nM.

As to `COc1cc(-n2nc(CC(=O)NC(C)C)n(-c3cccc(Cl)c3)c2=O)ccc1CCN1CCOCC1` [Example D-22, 2-[4-(3-chlorophenyl)-1-{3-methoxy-4-[2-(morpholin-4-yl)ethyl]phenyl}-5-oxo-4,5-dihydro-1H-1,2,4-triazol-3-yl]-N-(propan-2-yl)acetamide], the IC50 is 12 nM.

`COc1cc(-n2nc(CC(=O)NC(C)C)n(-c3cccc(Cl)c3)c2=O)ccc1CCN1C2CCC1COC2` [Example D-23, 2-[4-(3-chlorophenyl)-1-{3-methoxy-4-[2-(3-oxa-8-azabicyclo[3.2.1]oct-8-yl)ethyl]phenyl}-5-oxo-4,5-dihydro-1H-1,2,4-triazol-3-yl]-N-(propan-2-yl)acetamide] yielded an IC50 of 3.3 nM.

For the compound `CC(C)NC(=O)Cc1nn(-c2ccc(CCN3C4CCC3COC4)cc2F)c(=O)n1-c1cccc(Cl)c1` [Example D-24, 2-[4-(3-chlorophenyl)-1-{2-fluoro-4-[2-(3-oxa-8-azabicyclo[3.2.1]oct-8-yl)ethyl]phenyl}-5-oxo-4,5-dihydro-1H-1,2,4-triazol-3-yl]-N-(propan-2-yl)acetamide], the IC50 is 10 to 100 nM.

As to `COc1cc(CCN2C3CCC2COC3)ccc1-n1nc(CC(=O)NC(C)C)n(-c2cccc(Cl)c2)c1=O` [Example D-25, 2-[4-(3-chlorophenyl)-1-{2-methoxy-4-[2-(3-oxa-8-azabicyclo[3.2.1]oct-8-yl)ethyl]phenyl}-5-oxo-4,5-dihydro-1H-1,2,4-triazol-3-yl]-N-(propan-2-yl)acetamide], the IC50 lay within 100 to 1000 nM.

In turn, `CC(C)NC(=O)Cc1nn(-c2ccc(CCN3CCOCC3)cc2)c(=O)n1-c1ccc(F)c(Cl)c1` [Example D-26, 2-[4-(3-chloro-4-fluorophenyl)-1-{4-[2-(morpholin-4-yl)ethyl]phenyl}-5-oxo-4,5-dihydro-1H-1,2,4-triazol-3-yl]-N-(propan-2-yl)acetamide] came in with an IC50 of 4.4 nM.

Compound `CC(C)NC(=O)Cc1nn(-c2ccc(CCN3C4CCC3COC4)cc2)c(=O)n1-c1ccc(F)c(Cl)c1` [Example D-27, 2-[4-(3-chloro-4-fluorophenyl)-1-{4-[2-(3-oxa-8-azabicyclo[3.2.1]oct-8-yl)ethyl]phenyl}-5-oxo-4,5-dihydro-1H-1,2,4-triazol-3-yl]-N-(propan-2-yl)acetamide] gave an IC50 of 5.3 nM.

In turn, `CC(C)NC(=O)Cc1nn(-c2ccc(CCN3CCOCC3)cn2)c(=O)n1-c1ccc(F)c(Cl)c1` [Example D-28, 2-[4-(3-chloro-4-fluorophenyl)-1-{5-[2-(morpholin-4-yl)ethyl]pyridin-2-yl}-5-oxo-4,5-dihydro-1H-1,2,4-triazol-3-yl]-N-(propan-2-yl)acetamide] came in with an IC50 of 10 to 100 nM.

On to `CC(C)NC(=O)Cc1nn(-c2ccc(CCN3C4CCC3COC4)cn2)c(=O)n1-c1ccc(F)c(Cl)c1` [Example D-29, 2-[4-(3-chloro-4-fluorophenyl)-1-{5-[2-(3-oxa-8-azabicyclo[3.2.1]oct-8-yl)ethyl]pyridin-2-yl}-5-oxo-4,5-dihydro-1H-1,2,4-triazol-3-yl]-N-(propan-2-yl)acetamide], for which the IC50 fell in the range of 10 to 100 nM.

`CC(C)(C)NC(=O)Cc1nn(-c2ccc(CCN3CCOCC3)cc2)c(=O)n1-c1ccc(F)c(Cl)c1` [Example D-30, N-tert-butyl-2-[4-(3-chloro-4-fluorophenyl)-1-{4-[2-(morpholin-4-yl)ethyl]phenyl}-5-oxo-4,5-dihydro-1H-1,2,4-triazol-3-yl]acetamide] showed an IC50 of 2.8 nM.

For the compound `CC(C)(C)NC(=O)Cc1nn(-c2ccc(CCN3C4CCC3COC4)cc2)c(=O)n1-c1ccc(F)c(Cl)c1` [Example D-31, N-tert-butyl-2-[4-(3-chloro-4-fluorophenyl)-1-{4-[2-(3-oxa-8-azabicyclo[3.2.1]oct-8-yl)ethyl]phenyl}-5-oxo-4,5-dihydro-1H-1,2,4-triazol-3-yl]acetamide], the IC50 was 2.9 nM.

The compound `CC(C)(C)NC(=O)Cc1nn(-c2ccc(CCN3CCOCC3)cn2)c(=O)n1-c1ccc(F)c(Cl)c1` [Example D-32, N-tert-butyl-2-[4-(3-chloro-4-fluorophenyl)-1-{5-[2-(morpholin-4-yl)ethyl]pyridin-2-yl}-5-oxo-4,5-dihydro-1H-1,2,4-triazol-3-yl]acetamide] gave an IC50 of 17 nM.

As to `CC(C)(C)NC(=O)Cc1nn(-c2ccc(CCN3C4CCC3COC4)cn2)c(=O)n1-c1ccc(F)c(Cl)c1` [Example D-33, N-tert-butyl-2-[4-(3-chloro-4-fluorophenyl)-1-{5-[2-(3-oxa-8-azabicyclo[3.2.1]oct-8-yl)ethyl]pyridin-2-yl}-5-oxo-4,5-dihydro-1H-1,2,4-triazol-3-yl]acetamide], the IC50 worked out at 9.1 nM.

`CC(C)NC(=O)Cc1nn(-c2ccc(CC(C)N3C4CCC3COC4)cn2)c(=O)n1-c1cccc(Cl)c1` [Example D-34, 2-[4-(3-chlorophenyl)-1-{5-[2-(3-oxa-8-azabicyclo[3.2.1]oct-8-yl)propyl]pyridin-2-yl}-5-oxo-4,5-dihydro-1H-1,2,4-triazol-3-yl]-N-(propan-2-yl)acetamide] yielded an IC50 of 3.3 nM. This IC50 lies about 2.8-fold lower than the previous one.

Take `CC(C)NC(=O)Cc1nn(-c2ccc(CCN3CCOCC3)cc2)c(=O)n1-c1cccc(C(F)(F)F)c1` [Example D-35, 2-(1-{4-[2-(morpholin-4-yl)ethyl]phenyl}-5-oxo-4-[3-(trifluoromethyl)phenyl]-4,5-dihydro-1H-1,2,4-triazol-3-yl)-N-(propan-2-yl)acetamide]: the 50% inhibitory concentration (IC50) turned out to be 18 nM.

`CC(C)NC(=O)Cc1nn(-c2ccc(CC(C)N3C4CCC3COC4)cc2)c(=O)n1-c1ccc(F)c(Cl)c1` [Example D-36, 2-[4-(3-chloro-4-fluorophenyl)-1-{4-[2-(3-oxa-8-azabicyclo[3.2.1]oct-8-yl)propyl]phenyl}-5-oxo-4,5-dihydro-1H-1,2,4-triazol-3-yl]-N-(propan-2-yl)acetamide] had a half-inhibitory concentration (IC50) of 0.61 nM. This IC50 is about 30-fold lower than that of the compound before.

Compound `COc1cc(-n2c(CC(=O)NC(C)C)nn(-c3ccc(CCN4C5CCC4COC5)cc3)c2=O)ccc1F` [Example D-37, 2-[4-(4-fluoro-3-methoxyphenyl)-1-{4-[2-(3-oxa-8-azabicyclo[3.2.1]oct-8-yl)ethyl]phenyl}-5-oxo-4,5-dihydro-1H-1,2,4-triazol-3-yl]-N-(propan-2-yl)acetamide] returned an IC50 of 12 nM.

In turn, `COc1cc(-n2c(CC(=O)NC(C)C)nn(-c3ccc(CCN4C5CCC4COC5)cn3)c2=O)ccc1F` [Example D-38, 2-[4-(4-fluoro-3-methoxyphenyl)-1-{5-[2-(3-oxa-8-azabicyclo[3.2.1]oct-8-yl)ethyl]pyridin-2-yl}-5-oxo-4,5-dihydro-1H-1,2,4-triazol-3-yl]-N-(propan-2-yl)acetamide] had an IC50 of 10 to 100 nM.

For the compound `COc1cccc(-n2c(CC(=O)NC(C)C)nn(-c3ccc(CCN4C5CCC4COC5)cc3)c2=O)c1` [Example D-39, 2-[4-(3-methoxyphenyl)-1-{4-[2-(3-oxa-8-azabicyclo[3.2.1]oct-8-yl)ethyl]phenyl}-5-oxo-4,5-dihydro-1H-1,2,4-triazol-3-yl]-N-(propan-2-yl)acetamide], the IC50 fell in the range of 10 to 100 nM.

Consider `COc1cccc(-n2c(CC(=O)NC(C)C)nn(-c3ccc(CCN4C5CCC4COC5)cn3)c2=O)c1` [Example D-40, 2-[4-(3-methoxyphenyl)-1-{5-[2-(3-oxa-8-azabicyclo[3.2.1]oct-8-yl)ethyl]pyridin-2-yl}-5-oxo-4,5-dihydro-1H-1,2,4-triazol-3-yl]-N-(propan-2-yl)acetamide], for which the IC50 fell in the range of 100 to 1000 nM.

On to `COc1cc(-n2c(CC(=O)NC(C)C)nn(-c3ccc(CCN4C5CCC4COC5)c(OC)c3)c2=O)ccc1F` [Example D-41, 2-[4-(4-fluoro-3-methoxyphenyl)-1-{3-methoxy-4-[2-(3-oxa-8-azabicyclo[3.2.1]oct-8-yl)ethyl]phenyl}-5-oxo-4,5-dihydro-1H-1,2,4-triazol-3-yl]-N-(propan-2-yl)acetamide], for which the IC50 is 2.7 nM.
